Experimental data reported in patent US8987313B2, “Inhibitors of cytochrome P450” (Gilead Sciences, Inc., priority 2010, dated 2015).
Like-named read-outs stand apart in the source and are kept apart here.

Molecular target: CYP3A4 (Homo sapiens (Human), UniProt P08684)
Experiment: CYP3A Inhibition Assay (human hepatic microsomes; midazolam 1'-hydroxylase and testosterone 6β-hydroxylase activities)
Conditions: pooled human hepatic microsomal fraction
Procedure: Pooled (n≧15 donors) human hepatic microsomal fraction was obtained from BD-Gentest (Woburn, Mass.) who also supplied hydroxy-terfenadine, 4′-hydroxydiclofenac and NADPH regenerating system. Ritonavir was prepared from commercial Norvir® oral solution (Abbott Laboratories, Abbott Park, Ill.). Other reagents were from Sigma-Aldrich (St. Louis, Mo.) and included terfenadine, fexofenadine, BRL 15572, diclofenac and mefenamic acid.
Incubations were performed in duplicate in 50 mM potassium phosphate buffer, pH 7.4 with NADPH regenerating system used as described by the manufacturer. […] The final substrate concentrations used were equal to the apparent Km values for the activities determined under the same conditions. Inhibitors were dissolved in DMSO, and the final concentration of DMSO, from both substrate and inhibitor vehicles, was 1% (v/v). Incubations were performed at 37° C. with shaking and were initiated by addition of substrate. Aliquots were then removed at […]. Samples were quenched by treatment with an acetonitrile, formic acid, water (94.8%/0.2%/5%, v/v/v) mixture containing internal standard. Precipitated protein was removed by centrifugation at 3000 rpm for […] and aliquots of the supernatant were then subjected to LC-MS analysis.
The LC-MS system consisted of a Waters Acquity UPLC, with a binary solvent manager and a refrigerated (8° C.) sample organizer and sample manager, interfaced to a Micromass Quattro Premier tandem mass spectrometer operating in electrospray ionization mode. The column was a Waters Acquity UPLC BEH C18 2.1×50 mm, […]. Mobile phases consisted of mixtures of acetonitrile, formic acid and water, the composition for mobile phase A being 1%/0.2%/98.8% (v/v/v) and that for mobile phase B being 94.8%/0.2%/5% (v/v/v). The injection volumes were 5 μL and the flow rate was 0.8 mL/min. Concentrations of metabolites were determined by reference to standard curves generated with authentic analytes under the same conditions as the incubations.
IC50 values (the concentration of inhibitor reducing CYP3A activity by 50%) were calculated by non-linear regression using GraphPad Prism 4.0 software and a sigmoidal model.
For midazolam hydroxylase determination the final concentrations of microsomal protein and […] substrate were 0.25 mg/mL and 2.5 μM, respectively, and the LC-MS internal standard was 1α-hydroxytriazolam. […] After incubation at 37° C. for 5 minutes, metabolic reactions were terminated by treatment with quench solution containing the appropriate internal standard and were subsequently centrifuged before aliquots of the supernatant were removed and diluted with 0.1% (v/v) formic acid for LC-MS analysis.
For LC-MS analysis the column was a Phenomenex Synergi Max RP 4 μm column (50×2.0 mm) and the injection volume was 5 μL. The MS/MS ion current metabolite/internal standard peak area ratios (PAR) were measured on an Applied Biosystems SciEx API4000 triple quadrupole mass spectrometer coupled to a Leap CTC PAL autosampler with a 20 μL loop and a Shimadzu LC pump with a 25 μL mixer.

[1] = read-out: CYP3A4 IC50 (μM) (midazolam), midazolam 1'-hydroxylase activity
[2] = read-out: CYP3A4 IC50 (μM) (testosterone), testosterone 6β-hydroxylase activity

CYP3A4, sequence (P08684 whole entry): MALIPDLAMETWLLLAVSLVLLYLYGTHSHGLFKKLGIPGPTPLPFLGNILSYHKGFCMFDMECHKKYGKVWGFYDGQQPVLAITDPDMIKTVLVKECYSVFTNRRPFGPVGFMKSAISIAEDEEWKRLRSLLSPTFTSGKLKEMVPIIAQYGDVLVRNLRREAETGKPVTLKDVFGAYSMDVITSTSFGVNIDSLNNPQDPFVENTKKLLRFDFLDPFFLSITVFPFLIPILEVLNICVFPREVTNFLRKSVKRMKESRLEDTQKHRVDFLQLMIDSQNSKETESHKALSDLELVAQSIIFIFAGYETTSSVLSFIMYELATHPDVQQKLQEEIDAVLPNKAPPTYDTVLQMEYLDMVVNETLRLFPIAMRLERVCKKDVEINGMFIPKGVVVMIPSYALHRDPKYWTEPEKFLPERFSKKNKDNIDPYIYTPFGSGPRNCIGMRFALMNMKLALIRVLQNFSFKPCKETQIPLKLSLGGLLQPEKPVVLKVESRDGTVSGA

CC(C)c1nc(CN(C)C(=O)N2C[C@@H](N(C)C)C[C@H]2C(=O)N[C@H](CC[C@H](Cc2ccccc2)NC(=O)OCc2cncs2)Cc2ccccc2)cs1 [Compound 31]
IC50 [1]: 0.15 µM
IC50 [2]: 0.33 µM

CC(C)c1nc(CN(C)C(=O)N2CCN(C)C[C@H]2C(=O)N[C@H](CC[C@H](Cc2ccccc2)NC(=O)OCc2cncs2)Cc2ccccc2)cs1 [Compound 25]
IC50 [1]: 0.14 µM
IC50 [2]: 0.3 µM

CC(C)c1nc(CN(C)C(=O)N2Cc3nc[nH]c3C[C@H]2C(=O)N[C@H](CC[C@H](Cc2ccccc2)NC(=O)OCc2cncs2)Cc2ccccc2)cs1 [Compound 49]
IC50 [1]: 0.19 µM
IC50 [2]: 0.37 µM

CC(C)c1nc(CN(C)C(=O)N2CCC[C@H]2C(=O)N[C@H](CC[C@H](Cc2ccccc2)NC(=O)OCc2cncs2)Cc2ccccc2)cs1 [Compound 39]
IC50 [1]: 0.13 µM
IC50 [2]: 0.26 µM

CC(C)c1nc(CN(C)C(=O)N2C[C@H](O)C[C@H]2C(=O)N[C@H](CC[C@H](Cc2ccccc2)NC(=O)OCc2cncs2)Cc2ccccc2)cs1 [Compound 5]
IC50 [1]: 0.16 µM
IC50 [2]: 0.23 µM

CC(C)c1nc(CN(C)C(=O)NC2(C(=O)N[C@H](CC[C@H](Cc3ccccc3)NC(=O)OCc3cncs3)Cc3ccccc3)CCN(C)CC2)cs1 [Compound 21]
IC50 [1]: 0.19 µM
IC50 [2]: 0.34 µM

CC(C)c1nc(CN(C)C(=O)N2C[C@@H](N)C[C@H]2C(=O)N[C@H](CC[C@H](Cc2ccccc2)NC(=O)OCc2cncs2)Cc2ccccc2)cs1 [Compound 29]
IC50 [1]: 0.19 µM
IC50 [2]: 0.31 µM

CC(C)c1nc(CN(C)C(=O)N2C[C@@H](O)C[C@H]2C(=O)N[C@H](CC[C@H](Cc2ccccc2)NC(=O)OCc2cncs2)Cc2ccccc2)cs1 [Compound 8]
IC50 [1]: 0.17 µM
IC50 [2]: 0.24 µM

CN[C@H]1C[C@@H](C(=O)N[C@H](CC[C@H](Cc2ccccc2)NC(=O)OCc2cncs2)Cc2ccccc2)N(C(=O)N(C)Cc2csc(C(C)C)n2)C1 [Compound 30]
IC50 [1]: 0.17 µM
IC50 [2]: 0.36 µM

CC(=O)N[C@H]1C[C@@H](C(=O)N[C@H](CC[C@H](Cc2ccccc2)NC(=O)OCc2cncs2)Cc2ccccc2)N(C(=O)N(C)Cc2csc(C(C)C)n2)C1 [Compound 36]
IC50 [1]: < 0.1 µM
IC50 [2]: 0.37 µM

CC(C)c1nc(CN(C)C(=O)N2CCC[C@@H]2C(=O)N[C@H](CC[C@H](Cc2ccccc2)NC(=O)OCc2cncs2)Cc2ccccc2)cs1 [Compound 42]
IC50 [1]: 0.11 µM
IC50 [2]: 0.25 µM

CC(C)c1nc(CN(C)C(=O)N2C[C@H](O)C[C@H]2C(=O)N[C@@H](CC[C@@H](Cc2ccccc2)NC(=O)OCc2cncs2)Cc2ccccc2)cs1 [Compound 11]
IC50 [1]: 0.12 µM
IC50 [2]: 0.3 µM

CC(C)c1nc(CN(C)C(=O)N2CS(=O)(=O)C[C@H]2C(=O)N[C@H](CC[C@H](Cc2ccccc2)NC(=O)OCc2cncs2)Cc2ccccc2)cs1 [Compound 18]
IC50 [1]: 0.16 µM
IC50 [2]: 0.26 µM
